Laboratory results from patent publication US8691815B2, “Substituted oxindole derivatives, drugs containing said derivatives and the use thereof” (AbbVie Deutschland GmbH & Co. KG, priority 2005, dated 2014).
Structures can show the parent of a compound that is named as a salt.

Target: T1, human vasopressin V1b receptor (Homo sapiens, UniProt P47901)
T1 construct: expressed in transfected cells; host or cells: CHO-K1 (cell line hV1b-3H2_CHO), membrane preparation
T1 sequence (P47901 1-424): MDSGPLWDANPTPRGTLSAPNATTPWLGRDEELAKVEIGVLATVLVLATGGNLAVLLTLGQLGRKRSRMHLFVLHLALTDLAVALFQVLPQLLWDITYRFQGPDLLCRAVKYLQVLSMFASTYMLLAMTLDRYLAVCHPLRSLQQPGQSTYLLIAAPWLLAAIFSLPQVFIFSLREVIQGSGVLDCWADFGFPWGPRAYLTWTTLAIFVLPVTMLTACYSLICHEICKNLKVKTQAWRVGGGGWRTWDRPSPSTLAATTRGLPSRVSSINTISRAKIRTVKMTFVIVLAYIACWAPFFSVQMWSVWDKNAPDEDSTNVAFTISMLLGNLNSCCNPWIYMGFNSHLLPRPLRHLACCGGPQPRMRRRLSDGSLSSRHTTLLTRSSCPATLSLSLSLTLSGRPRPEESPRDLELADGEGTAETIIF
Assay: Vasopressin V1b receptor binding assay
Conditions: membranes from CHO-K1 cells with stably expressed human V1b receptors, displacement of 1.5 nM 3H-AVP
Method: Vasopressin V1b Receptor Binding Assay:
The test substances were dissolved in a concentration of 10^−2 M in DMSO (dimethyl sulfoxide) and further diluted to 5×10^−4 M to 5×10^−9 M in DMSO. This series of DMSO predilutions was diluted 1:10 with assay buffer. The substance concentration was again diluted 1:5 in the assay mixture (2% DMSO in the mixture).
The membrane pellet was again homogenized and centrifuged as described and then taken up in 50 mM Tris-HCl, pH 7.4, homogenized and stored in aliquots frozen in liquid nitrogen at −190° C.
The incubation buffer was: 50 mM Tris, 10 mM MgCl2, 0.1% BSA, pH 7.4.
The nonspecific binding was determined with 1 uM AVP (Bachem # H1780). All determinations were carried out as triplicate determinations. After incubation (60 minutes at room temperature), the free radioligand was removed by vacuum filtration (Skatron cell harvester 7000) through Whatman GF/B glass fiber filter mats, and the filters were transferred into scintillation vials. The liquid scintillation measurement took place in a Tricarb model 2000 or 2200CA instrument (Packard). Conversion of the measured cpm into dpm was carried out with the aid of a standard quench series.
The binding parameters were calculated by nonlinear regression in SAS.

| Structure (SMILES) | Ki |
| --- | --- |
| COc1ccc(S(=O)(=O)N2C(=O)C(c3cc(CN(C)C)ccc3OC)(N3CCC[C@H]3C(=O)N(C)C)c3cc(Cl)ccc32)c(OC)c1 (stereo partly drawn) [Example 24, (S)-1-[5-Chloro-1-(2,4-dimethoxybenzenesulfonyl)-3-(5-dimethylaminomethyl-2-methoxyphenyl)-2-oxo-2,3-dihydro-1H-indol-3-yl]pyrrolidine-2-dimethylcarboxamide, trifluoroacetic acid salt] | < 1 nM |
| COc1ccc(S(=O)(=O)N2C(=O)C(c3cc(CN4CCCC4)ccc3OC)(N3CCC[C@H]3C(=O)N(C)C)c3cc(Cl)ccc32)c(OC)c1 (stereo partly drawn) [Example 25, (S)-1-[5-Chloro-1-(2,4-dimethoxybenzenesulfonyl)-3-(2-methoxy-5-pyrrolidin-1-yl-methylphenyl)-2-oxo-2,3-dihydro-1H-indol-3-yl]pyrrolidine-2-dimethylcarboxamide, trifluoroacetic acid salt] | < 1 nM |
| COc1ccc(S(=O)(=O)N2C(=O)C(c3cc(CN4CCCCC4)ccc3OC)(N3CCC[C@H]3C(=O)N(C)C)c3cc(Cl)ccc32)c(OC)c1 (stereo partly drawn) [Example 26, (S)-1-[5-Chloro-1-(2,4-dimethoxybenzenesulfonyl)-3-(2-methoxy-5-piperidin-1-yl-methylphenyl)-2-oxo-2,3-dihydro-1H-indol-3-yl]pyrrolidin-2-dimethylcarboxamide trifluoroacetic acid salt] | < 1 nM |
| COc1ccc(S(=O)(=O)N2C(=O)C(c3cc(CN4CCN(C)CC4)ccc3OC)(N3CCC[C@H]3C(=O)N(C)C)c3cc(Cl)ccc32)c(OC)c1 (stereo partly drawn) [Example 27, (S)-1-{5-Chloro-1-(2,4-dimethoxybenzenesulfonyl)-3-[2-methoxy-5-(4-methyl-piperazin-1-ylmethyl)phenyl]-2-oxo-2,3-dihydro-1H-indol-3-yl}pyrrolidine-2-dimethylcarboxamide, trifluoroacetic acid salt] | < 1 nM |
| COc1ccc(S(=O)(=O)N2C(=O)C(c3cc(CN4CCOCC4)ccc3OC)(N3CCC[C@H]3C(=O)N(C)C)c3cc(Cl)ccc32)c(OC)c1 (stereo partly drawn) [Example 28, (S)-1-[5-Chloro-1-(2,4-dimethoxybenzenesulfonyl)-3-(2-methoxy-5-morpholin-4-yl-methylphenyl)-2-oxo-2,3-dihydro-1H-indol-3-yl]pyrrolidine-2-dimethylcarboxamide, trifluoroacetic acid salt] | 1 to 10 nM |
| COc1ccc(S(=O)(=O)N2C(=O)C(c3cc(CN(C)CCN(C)C)ccc3OC)(N3CCC[C@H]3C(=O)N(C)C)c3cc(Cl)ccc32)c(OC)c1 (stereo partly drawn) [Example 29, (S)-1-[5-Chloro-1-(2,4-dimethoxybenzenesulfonyl)-3-(5-{[(2-dimethylaminoethyl)-methylamino]methyl}-2-methoxyphenyl)-2-oxo-2,3-dihydro-1H-indol-3-yl]pyrrolidine-2-dimethylcarboxamide, trifluoroacetic acid salt] | < 1 nM |
| COc1ccc(S(=O)(=O)N2C(=O)C(c3cc(CN(C)CCCN(C)C)ccc3OC)(N3CCC[C@H]3C(=O)N(C)C)c3cc(Cl)ccc32)c(OC)c1 (stereo partly drawn) [Example 30, (S)-1-[5-Chloro-1-(2,4-dimethoxybenzenesulfonyl)-3-(5-{[(3-dimethylaminopropyl)-methylamino]methyl}-2-methoxyphenyl)-2-oxo-2,3-dihydro-1H-indol-3-yl]pyrrolidine-2-dimethylcarboxamide, trifluoroacetic acid salt] | < 1 nM |
| COCCN(C)Cc1ccc(C2(N3CCC[C@H]3C(=O)N(C)C)C(=O)N(S(=O)(=O)c3ccc(OC)cc3OC)c3ccc(Cl)cc32)c(OC)c1 (stereo partly drawn) [Example 31, (S)-1-[5-Chloro-1-(2,4-dimethoxybenzenesulfonyl)-3-(2-methoxy-4-{[(2-methoxy-ethyl)methylamino]methyl}phenyl)-2-oxo-2,3-dihydro-1H-indol-3-yl]pyrrolidine-2-dimethylcarboxamide] | 1 to 10 nM |
| COCCN(C)Cc1ccc(OC)c(C2(N3CCC[C@H]3C(=O)N(C)C)C(=O)N(S(=O)(=O)c3ccc(OC)cc3)c3ccc(Cl)cc32)c1 (stereo partly drawn) [Example 32, (S)-1-[5-Chloro-1-(4-methoxybenzenesulfonyl)-3-(2-methoxy-5-{[(2-methoxyethyl)-methylamino]methyl}phenyl)-2-oxo-2,3-dihydro-1H-indol-3-yl]-pyrrolidine-2-dimethyl-carboxamide, trifluoroacetic acid salt] | < 1 nM |
| COCCN(C)Cc1ccc(OC)c(C2(N3CCC[C@H]3C(=O)N(C)C)C(=O)N(S(=O)(=O)c3ccc(OC)cc3OC)c3ccc(Cl)cc32)c1 (stereo partly drawn) [Example 33, (S)-1-[5-Chloro-1-(2,4-dimethoxybenzenesulfonyl)-3-(2-methoxy-5-{[(2-methoxy-ethyl)methylamino]methyl}phenyl)-2-oxo-2,3-dihydro-1H-indol-3-yl]pyrrolidine-2-dimethylcarboxamide, trifluoroacetic acid salt] | < 1 nM |
| COc1ccc(S(=O)(=O)N2C(=O)C(c3ccc(CN4CCN(C)CC4)cc3OC)(N3CCC[C@H]3C(=O)N(C)C)c3cc(Cl)ccc32)cc1 (stereo partly drawn) [Example 69, (S)-1-{5-Chloro-1-(4-methoxybenzenesulfonyl)-3-[2-methoxy-4-(4-methylpiperazin-1-ylmethyl)phenyl]-2-oxo-2,3-dihydro-1H-indol-3-yl}pyrrolidine-2-dimethylcarboxamide, trifluoroacetic acid salt] | < 1 nM |
| COc1ccc(S(=O)(=O)N2C(=O)C(c3ccc(CN(C)C)cc3OC)(N3CCC[C@H]3C(=O)N(C)C)c3cc(Cl)ccc32)cc1 (stereo partly drawn) [Example 70, (S)-1-[5-Chloro-3-(4-dimethylaminomethyl-2-methoxyphenyl)-1-(4-methoxy-benzenesulfonyl)-2-oxo-2,3-dihydro-1H-indol-3-yl]pyrrolidine-2-dimethylcarboxamide, trifluoroacetic acid salt] | < 1 nM |
| COc1ccc(S(=O)(=O)N2C(=O)C(c3ccc(CN4CCOCC4)cc3OC)(N3CCC[C@H]3C(=O)N(C)C)c3cc(Cl)ccc32)cc1 (stereo partly drawn) [Example 71, (S)-1-[5-Chloro-1-(4-methoxybenzenesulfonyl)-3-(2-methoxy-4-morpholin-4-yl-methylphenyl)-2-oxo-2,3-dihydro-1H-indol-3-yl]pyrrolidine-2-dimethylcarboxamide, trifluoroacetic acid salt] | < 1 nM |
| COc1cc(CN(C)C)ccc1C1(N2CCC[C@H]2C(=O)N(C)C)C(=O)N(S(=O)(=O)c2ccc(C#N)cc2)c2ccc(Cl)cc21 (stereo partly drawn) [Example 72, (S)-1-[5-Chloro-1-(4-cyanobenzenesulfonyl)-3-(4-dimethylaminomethyl-2-methoxy-phenyl)-2-oxo-2,3-dihydro-1H-indol-3-yl]pyrrolidine-2-dimethylcarboxamide, trifluoroacetic acid salt] | 1 to 10 nM |
| COc1cc(CN(C)C)ccc1C1(N2CCC[C@H]2C(=O)N(C)C)C(=O)N(S(=O)(=O)c2ccc(F)cc2)c2ccc(Cl)cc21 (stereo partly drawn) [Example 73, (S)-1-[5-Chloro-3-(4-dimethylaminomethyl-2-methoxyphenyl)-1-(4-fluorobenzene-sulfonyl)-2-oxo-2,3-dihydro-1H-indol-3-yl]pyrrolidine-2-dimethylcarboxamide, trifluoroacetic acid salt] | 1 to 10 nM |
| COc1cc(CN2CCN(C)CC2)ccc1C1(N2CCC[C@H]2C(=O)N(C)C)C(=O)N(S(=O)(=O)c2ccc(F)cc2)c2ccc(Cl)cc21 (stereo partly drawn) [Example 74, (S)-1-{5-Chloro-1-(4-fluorobenzenesulfonyl)-3-[2-methoxy-4-(4-methylpiperazin-1-yl-methyl)phenyl]-2-oxo-2,3-dihydro-1H-indol-3-yl}pyrrolidine-2-dimethylcarboxamide, trifluoroacetic acid salt] | < 1 nM |
| COc1cc(CN2CCOCC2)ccc1C1(N2CCC[C@H]2C(=O)N(C)C)C(=O)N(S(=O)(=O)c2ccc(F)cc2)c2ccc(Cl)cc21 (stereo partly drawn) [Example 77, (S)-1-[5-Chloro-1-(4-fluorobenzenesulfonyl)-3-(2-methoxy-4-morpholin-4-ylmethyl-phenyl)-2-oxo-2,3-dihydro-1H-indol-3-yl]pyrrolidine-2-dimethylcarboxamide, trifluoroacetic acid salt] | 10 to 100 nM |
| COc1cc(CN2CCNCC2)ccc1C1(N2CCC[C@H]2C(=O)N(C)C)C(=O)N(S(=O)(=O)c2ccc(F)cc2)c2ccc(Cl)cc21 (stereo partly drawn) [Example 78, (S)-1-[5-Chloro-1-(4-fluorobenzenesulfonyl)-3-(2-methoxy-4-piperazin-1-ylmethyl-phenyl)-2-oxo-2,3-dihydro-1H-indol-3-yl]pyrrolidine-2-dimethylcarboxamide, trifluoroacetic acid salt] | < 1 nM |
